The record followed here is ChEMBL document CHEMBL1201862, “PubChem BioAssay data set” (2004).

The structures appear in SMILES notation.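 Five compound concentrations were applied to cells in 96-well plates for 48 hours; endpoints were derived by simple linear interpolation of the resulting dose-response curve. At the GI50, growth is halved.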 The source made the active and inactive calls. Cut-off read from the data, not from the text of the source: active = GI50 up to about 1.1 µM and inactive = higher. A value given as a limit tells only on which side of the number the result lay.

Some test systems named below: MCF7; NCI-H23; A549; HCC 2998; MOLT-4; SK-MEL-5; SK-MEL-28; SF-268; BT-549; SN12C; Malme-3M; HOP-62; U-251; HCT-116; NCI-H460; KM12; OVCAR-8; COLO 205; HCT-15.
Experiment in all cases: NCI tumour cell line growth inhibition, 48 h

For `CC(NC(=O)C(N)CC(=O)O)NC(=O)N(C)C(C)(C)C` (centres undefined), the GI50 in the test with MCF7, in the test with NCI-H23, in the test on A549, in the test on HCC 2998, with MOLT-4 and in the test on SK-MEL-5 was > 100 µM (inactive) each time. Also, the GI50 in the test with SK-MEL-28, with SF-268, with BT-549, in the test on SN12C, in the test with Malme-3M and in the test on HOP-62 was > 100 µM (inactive) throughout. Moreover, the GI50 in the test on U-251, with HCT-116, in the test on NCI-H460, in the test with KM12, in the test with OVCAR-8 and in the test on COLO 205 was > 100 µM (inactive) each time. Moreover, the GI50 in the test with HCT-15 is more than 100 µM.
`Cn1c2ccccc2c2c(-c3ccccc3)cc3c(c21)C(=O)C=CC3=O`: the GI50 in the test with MCF7 is 1.72 µM (inactive); in the test with NCI-H23 it was 1.94 µM (inactive); with A549, > 10 µM (inactive); with HCC 2998, > 4.88 µM (inactive); in the test on MOLT-4 it was 0.28 µM (active); with SK-MEL-5 it was 2.96 µM (inactive). Moreover, the GI50 with SK-MEL-28 is 2 µM (inactive); with SF-268, 3.36 µM (inactive); in the test on BT-549 it was 1.6 µM (inactive); with SN12C, 2.39 µM (inactive); with Malme-3M, 2.06 µM (inactive); with HOP-62, > 7.4 µM (inactive). The GI50 with U-251 is 4.05 µM (inactive); in the test with HCT-116, 1.45 µM (inactive); in the test with NCI-H460, 6.07 µM (inactive); in the test on KM12 it was 4.43 µM (inactive); in the test with OVCAR-8 it was 2.07 µM (inactive); with COLO 205, 0.632 µM (active). For the same molecule, the GI50 in the test with HCT-15 is 1.85 µM.
Take `COc1ccc(-c2[nH]c3c4c(nc5c(c24)C(=O)CC(C)(C)C5)CC(C)(C)C3)cc1`: the GI50 was 58.3 µM (inactive) in the test with MCF7; 76.2 µM (inactive) with NCI-H23; 62.4 µM (inactive) in the test on A549; 55.6 µM (inactive) in the test with HCC 2998; 7.03 µM (inactive) with MOLT-4; 63.1 µM (inactive) with SK-MEL-5. In addition, the GI50 in the test with SK-MEL-28 is > 100 µM (inactive); in the test with SF-268, 95.5 µM (inactive); in the test with BT-549 it was 43.9 µM (inactive); in the test on SN12C, 38.9 µM (inactive); with Malme-3M, > 100 µM (inactive); in the test on HOP-62, > 100 µM (inactive). In addition, the GI50 with U-251 was 48.9 µM (inactive); in the test on HCT-116, 70 µM (inactive); in the test on NCI-H460, 72.3 µM (inactive); with KM12, 40.4 µM (inactive); with OVCAR-8 it was 52.6 µM (inactive); in the test with COLO 205, 63.8 µM (inactive). Also, the GI50 in the test with HCT-15 was 54.2 µM.
In the case of `Cc1sc2nc(N(C)C)oc(=O)c2c1C`, the GI50 is > 100 µM (inactive) with MCF7; > 100 µM (inactive) in the test on NCI-H23; 85.9 µM (inactive) in the test on A549; > 100 µM (inactive) with HCC 2998; 73.8 µM (inactive) in the test on MOLT-4; 72.4 µM (inactive) in the test with SK-MEL-5. The GI50 in the test on SK-MEL-28 was > 100 µM (inactive); in the test with SF-268, 7.01 µM (inactive); in the test on BT-549 it was 15.8 µM (inactive); with SN12C, 86.1 µM (inactive); in the test on Malme-3M, > 100 µM (inactive); with HOP-62 it was 51.5 µM (inactive). In addition, the GI50 was > 100 µM (inactive) with U-251; > 100 µM (inactive) in the test with HCT-116; > 100 µM (inactive) in the test on NCI-H460; > 100 µM (inactive) in the test on KM12; 73.5 µM (inactive) in the test on OVCAR-8; > 100 µM (inactive) in the test with COLO 205. For the same molecule, the GI50 in the test with HCT-15 was 82.6 µM.
Consider `C=CCn1c(=O)c(-c2ccccc2)c(O)c2ccccc21`, for which the GI50 with MCF7, in the test with NCI-H23, in the test with A549, in the test on HCC 2998, in the test with MOLT-4 and in the test on SK-MEL-5 was > 100 µM (inactive) in each case. For the same molecule, the GI50 in the test with SK-MEL-28, in the test on SF-268, in the test with BT-549, in the test with SN12C, with Malme-3M and in the test on HOP-62 was > 100 µM (inactive) throughout. In addition, the GI50 with U-251, in the test on HCT-116, in the test with NCI-H460, with KM12, in the test on OVCAR-8 and with COLO 205 was > 100 µM (inactive) each time. In the test on HCT-15, this molecule registered a GI50 of more than 100 µM.
For `O=C(NCC1Nc2ccncc2S(=O)(=O)N1)c1ccc(Br)cc1` (centres undefined), the GI50 in the test on MCF7 was 37 µM (inactive); in the test with NCI-H23, 66.1 µM (inactive); in the test on A549 it was > 100 µM (inactive); in the test with HCC 2998, 51.9 µM (inactive); in the test on MOLT-4, 46.2 µM (inactive); in the test on SK-MEL-5 it was > 100 µM (inactive). Moreover, the GI50 is 92.5 µM (inactive) with SK-MEL-28; 27.4 µM (inactive) in the test on SF-268; 69.7 µM (inactive) in the test on BT-549; > 100 µM (inactive) in the test with SN12C; 28.8 µM (inactive) with Malme-3M; > 100 µM (inactive) in the test on HOP-62. Moreover, the GI50 is 30.4 µM (inactive) with U-251; 43.9 µM (inactive) in the test with HCT-116; > 100 µM (inactive) in the test on NCI-H460; 40.6 µM (inactive) in the test on KM12; 35.9 µM (inactive) in the test with OVCAR-8; > 100 µM (inactive) in the test on COLO 205. Also, the GI50 in the test on HCT-15 was 42.5 µM.
For the molecule `N=C(Cc1ccccc1)NCC(=O)O`, the GI50 in the test on MCF7, in the test on NCI-H23, in the test on A549, with HCC 2998, with MOLT-4 and with SK-MEL-5 was > 100 µM (inactive) in each case. For the same molecule, the GI50 in the test with SK-MEL-28, with SF-268, in the test on BT-549, in the test on SN12C, in the test on Malme-3M and in the test with HOP-62 was > 100 µM (inactive) throughout. Moreover, the GI50 in the test on U-251, in the test with HCT-116, in the test with NCI-H460, in the test on KM12, in the test on OVCAR-8 and in the test on COLO 205 was > 100 µM (inactive) throughout. In addition, the GI50 in the test on HCT-15 is more than 100 µM.
Take `OCc1ccc2c(c1)CC1(C2)Cc2cc3c(cc2C1O)CCC3` (centres undefined): the GI50 was 3.66 µM (inactive) with MCF7; 5.35 µM (inactive) in the test on NCI-H23; 6.43 µM (inactive) in the test with A549; 6.55 µM (inactive) in the test on HCC 2998; 4.09 µM (inactive) with MOLT-4; 3.04 µM (inactive) in the test on SK-MEL-5. Besides, the GI50 with SK-MEL-28 is 6.34 µM (inactive); in the test on SF-268, 10.9 µM (inactive); in the test on BT-549 it was 2.86 µM (inactive); with SN12C, 3.22 µM (inactive); in the test with Malme-3M, 5.01 µM (inactive); with HOP-62 it was 4.49 µM (inactive). In addition, the GI50 was 3.3 µM (inactive) in the test on U-251; 3.37 µM (inactive) in the test with HCT-116; 3.28 µM (inactive) with NCI-H460; 2.87 µM (inactive) with KM12; 5.74 µM (inactive) in the test with OVCAR-8; 3.17 µM (inactive) in the test with COLO 205. This molecule also showed a GI50 with HCT-15 of 3.36 µM.
With `O=C(O)C(O)C(O)C(O)C(O)CO.[Ba+2]` (centres undefined), the GI50 with MCF7, with NCI-H23, in the test on A549, with HCC 2998, with MOLT-4 and with SK-MEL-5 was > 100 µM (inactive) each time. Besides, the GI50 with SK-MEL-28, in the test on SF-268, in the test on BT-549, in the test with SN12C, with Malme-3M and with HOP-62 was > 100 µM (inactive) throughout. Moreover, the GI50 in the test with U-251, in the test with HCT-116, in the test with NCI-H460, in the test with KM12, in the test on OVCAR-8 and in the test with COLO 205 was > 100 µM (inactive) each time. In the test with HCT-15, this molecule showed a GI50 of more than 100 µM.
Regarding `Cc1sc(Nc2ccc(Nc3nc(-c4ccccc4)c(C)s3)cc2)nc1-c1ccccc1`, the GI50 in the test with MCF7 is 21.8 µM (inactive); in the test on NCI-H23, 28.7 µM (inactive); with A549 it was 30.1 µM (inactive); with HCC 2998, 16.9 µM (inactive); in the test on MOLT-4, 17.1 µM (inactive); with SK-MEL-5 it was 22.6 µM (inactive). For the same molecule, the GI50 was > 100 µM (inactive) in the test on SK-MEL-28; > 100 µM (inactive) in the test on SF-268; > 100 µM (inactive) in the test with BT-549; 31.3 µM (inactive) in the test with SN12C; > 100 µM (inactive) in the test on Malme-3M; > 100 µM (inactive) with HOP-62. The GI50 with U-251 was 13.7 µM (inactive); in the test with HCT-116, 62.2 µM (inactive); in the test on NCI-H460, 18.2 µM (inactive); in the test with KM12, > 100 µM (inactive); with OVCAR-8, > 100 µM (inactive); with COLO 205, 16.2 µM (inactive). Also, in the test with HCT-15, the GI50 was 44.8 µM.
Take `COc1cccc(-c2cc(O)c3c(C)cc(C)nc3n2)c1`: the GI50 in the test with MCF7 is 0.442 µM (active); in the test with NCI-H23 it was 0.746 µM (active); in the test with A549, 0.78 µM (active); in the test on HCC 2998, 0.682 µM (active); in the test on MOLT-4, 0.531 µM (active); with SK-MEL-5, 0.301 µM (active). The GI50 in the test on SK-MEL-28 is 0.83 µM (active); in the test with SF-268 it was 0.578 µM (active); in the test with BT-549 it was 12.3 µM (inactive); in the test with SN12C, 0.845 µM (active); in the test with Malme-3M, 0.252 µM (active); in the test on HOP-62, 1.09 µM (active). Further, the GI50 with U-251 was 0.526 µM (active); in the test on HCT-116 it was 0.395 µM (active); in the test with NCI-H460, 0.455 µM (active); in the test on KM12 it was 0.264 µM (active); in the test on OVCAR-8, 0.944 µM (active); with COLO 205 it was 0.21 µM (active). Also, in the test with HCT-15, the GI50 was 0.399 µM.
